For two compounds, MIC results are on record in patent US5602239A, “5-O-desosaminylerythronolide derivatives” (Taisho Pharmaceutical Co., Ltd., priority 1993, dated 1997).

Common to all, as to type: cell-based
One assay concerns S. aureus 209P-JC. Put plainly: In vitro antibacterial activity (MIC), S. aureus 209P-JC. The note with it: Staphylococcus aureus, sensitive disc media, Japan Society of Chemotherapy method, read-out: MIC value (Minimum Inhibitory Concentration). The protocol: (§1) The in vitro antibacterial activity of the compound of the present invention obtained in Example 9 against various experimental bacteria was measured using sensitive disc media (produced by Eiken Chemical Co.) according to the MIC measuring method specified by the Japan Society of Chemotherapy. 6-O-Methylerythromycin A was used as a comparative drug.

For the next assay, the system named is S. aureus Smith 4. Kind of assay: In vitro antibacterial activity (MIC), S. aureus Smith 4. The note with it: Staphylococcus aureus, SMITH4, sensitive disc media, Japan Society of Chemotherapy method, read-out: MIC value (Minimum Inhibitory Concentration). The procedure: as §1
For another assay, the system named is S. epidermides IID 866. Put plainly: In vitro antibacterial activity (MIC), S. epidermides IID 866. The note with it: sensitive disc media, Japan Society of Chemotherapy method, read-out: MIC value (Minimum Inhibitory Concentration). The protocol: as §1
The test system of a further assay is E. faecalis CSJ 1212. Put plainly: In vitro antibacterial activity (MIC), E. faecalis CSJ 1212. The note with it: Enterococcus faecalis, CSJ1212, sensitive disc media, Japan Society of Chemotherapy method, read-out: MIC value (Minimum Inhibitory Concentration). The protocol: as §1
A further assay deals with S. aureus B1. Put plainly: In vitro antibacterial activity (MIC), S. aureus B1. The conditions noted are these: Staphylococcus aureus, sensitive disc media, Japan Society of Chemotherapy method, read-out: MIC value (Minimum Inhibitory Concentration). The procedure: as §1

Structures are written as SMILES. ≈ marks a conversion by molar mass, not a printed value.

In the case of `CC[C@H]1OC(=O)[C@H](C)[C@@H](O[C@H]2C[C@@](C)(OC)[C@@H](O)[C@H](C)O2)[C@H](C)[C@@H](O[C@@H]2O[C@H](C)C[C@H](N(C)C)[C@H]2O)[C@](C)(OC)C[C@@H](C)C(=O)[C@H](C)[C@@H](O)[C@]1(C)O` [Comparative drug, 6-O-Methylerythromycin A], the MIC in the assay on S. aureus 209P-JC was 0.1 µg/mL (≈ 0.134 µM); in the assay on S. aureus Smith 4, 0.1 µg/mL (≈ 0.134 µM); in the assay on S. epidermides IID 866, 0.1 µg/mL (≈ 0.134 µM); with E. faecalis CSJ 1212, 0.78 µg/mL (≈ 1.04 µM); in the assay with S. aureus B1, above 100 µg/mL.
For the compound `CC[C@H]1OC(=O)[C@H](C)[C@@H](Oc2ccc([N+](=O)[O-])cc2[N+](=O)[O-])[C@H](C)[C@@H](O[C@@H]2O[C@H](C)C[C@H](N(C)C)[C@H]2O)[C@](C)(OC)C[C@@H](C)C(=O)[C@H](C)[C@H]2OC(=O)O[C@@]21C` [Example 9, 3-O-(2,4-dinitro)phenyl-5-O-desosaminyl-6-O-methylerythronolide A 11,12-cyclic carbonate], the MIC was 0.1 µg/mL (≈ 0.128 µM) in the assay on S. aureus 209P-JC; 0.1 µg/mL (≈ 0.128 µM) in the assay on S. aureus Smith 4; 0.1 µg/mL (≈ 0.128 µM) with S. epidermides IID 866; 0.2 µg/mL (≈ 0.256 µM) in the assay on E. faecalis CSJ 1212; 0.78 µg/mL (≈ 0.998 µM) with S. aureus B1.
